Laboratory results taken from US12583839B2, “PD-L1 antagonist compound” (ADLAI NORTYE BIOPHARMA CO., LTD., priority 2019, dated 2026).
pEC50: −log10 of the molar value.

What follows are compounds tested against T1, PD-1/PD-L1 (Homo sapiens, UniProt Q9NZQ7) (assay: Detection of biological activity of PD-1/PD-L1 signaling inhibition at the cellular level (NFAT luciferase reporter, PD-1/NFAT-Reporter-Jurkat cells co-cultured with TCR activator/PD-L1-CHO cells)). Conditions: PD-1/NFAT-Reporter-Jurkat + TCR activator/PD-L1-CHO co-culture, 6 hours; Atezolizumab as positive control.
T1 construct: 60535 (PD-1/NFAT-Reporter-Jurkat); host or cells: CHO cells expressing PD-L1; Jurkat cells expressing PD-1
Format: cell-based
Description: Detection of Biological Activity of PD-1/PD-L1 Signaling Inhibition at the Cellular Level
This detection method is used for evaluating the biological activity of the compounds described in the present invention at the cellular level.
This detection method uses the luciferase reporter gene method to detect the biological activity of the compound on the inhibition of PD-1/PD-L1 signal at the cellular level. PD-1/NFAT—Reporter—Jurkat cells stably express human PD-1 and express the luciferase reporter gene regulated by NFAT elements; TCR activator/PD-L1-CHO cells stably express human PD-L1 and TCR activator elements. When the two cell lines were co-cultured, the binding of PD-1/PD-L1 inhibited the TCR signaling pathway, thereby inhibiting the expression of the downstream NFAT-controlled luciferase reporter gene. When PD-1/PD-L1 antibody or inhibitor is added, this inhibitory effect is reversed and luciferase is expressed, so that the effect of PD-1/PD-L1 inhibitor on luciferase activity can be detected.
PD-1/NFAT—Reporter—Jurkat cell (Cat: 60535) and TCR activator/PD-L1-CHO cell (Cat: 60536) were purchased from BPS Bioscience. Anti-human PD-L1 antibody (Atezolizumab, Cat: A2004) was purchased from Selleck; luciferase reporter gene expression detection kit (ONE-Glo™ Luciferase Assay System, Cat: E6120) was purchased from Promega; multifunction plate reader (SpectraMax i3x) was purchased from Molecular Devices.
The PD-1/NFAT—Reporter—Jurkat cells and TCR activator/PD-L1-CHO cells were cultured according to the routine cell culture protocol.
TCR activator/PD-L1-CHO cells were harvested and seeded into a 96-well culture plate at 35,000 cells/well in a medium volume of 100 μl and incubated overnight at 37° C. The next day, the medium was discarded, compound was added and incubated for 30 minutes, while a solvent control (dimethyl sulfoxide, DMSO, final concentration of 0.1%) and PD-L1 antibody (Atezolizumab, final concentration of about 10 nM) as positive controls were set. PD-1/NFAT-reporter-Jurkat cells were then added. After culturing for 6 hours, the luciferase activity was detected according to the instructions of the luciferase detection reagent.
Using PD-L1 antibody as a positive control, calculate the inhibition rate of PD-1/PD-L1 binding of the test compound (%)=(chemiluminescence value of compound treated wells/average value of chemiluminescence value of solvent control wells−1)/(average value of chemiluminescence value of PD-L1 antibody well/average value of chemiluminescence value of solvent control well−1)×100%.
According to the above detection method, the compounds of the present invention were evaluated for their biological activity at the cellular level, and the activity results are shown in the following table.

T1 sequence (Q9NZQ7 19-290): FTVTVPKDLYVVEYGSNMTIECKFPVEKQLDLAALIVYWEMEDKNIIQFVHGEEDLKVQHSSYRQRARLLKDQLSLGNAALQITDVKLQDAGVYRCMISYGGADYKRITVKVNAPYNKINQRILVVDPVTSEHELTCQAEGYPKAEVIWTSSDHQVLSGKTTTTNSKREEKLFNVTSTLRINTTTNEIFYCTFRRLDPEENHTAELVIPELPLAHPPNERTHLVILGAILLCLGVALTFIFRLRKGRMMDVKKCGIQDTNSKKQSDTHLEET

Compound	pEC50
COc1cc(Cn2ncc3c(-c4cccc(-c5ccc(CNC[C@@H]6CCC(=O)N6)cc5)c4Cl)cccc32)c(F)cc1CN(C)CC1CCC(C(=O)O)CC1 (stereo partly drawn) [Compound 111]	5.98
COc1cc(-c2cccc(-c3cccc4c3cnn4Cc3cc(OC)c(CNC[C@@H]4CCC(=O)N4)cc3Cl)c2Cl)ccc1CNC[C@@H]1CCC(=O)N1 [Compound 58]	7.16
COc1cc(Cn2ncc3c(-c4cccc(-c5cc(F)c(CNC[C@@H]6CCC(=O)N6)c(OC)c5)c4Cl)cccc32)c(Cl)cc1CN(C)C12CC(C(=O)O)(C1)C2 [Compound 136]	6.62
COc1cc(Cn2ncc3c(-c4cccc(-c5cc(F)c(CNC[C@H]6CCC(=O)N6)c(OC)c5)c4Cl)cccc32)c(Cl)cc1CN(C)C12CCC(C(=O)O)(CC1)CC2 [Compound 167]	7.28
COc1cc(-c2cccc(-c3cccc4c3cnn4Cc3cc(OC)c(CN4CCC(CC(=O)O)CC4)cc3Cl)c2Cl)ccc1CNC[C@@H]1CCC(=O)N1 [Compound 94]	6.85
COc1cc(Cn2ncc3c(-c4cccc(-c5cc(Cl)c(CNC[C@@H]6CCC(=O)N6)c(OC)c5)c4Cl)cccc32)c(Cl)cc1CN(C)CC1CCC(C(=O)O)CC1 (stereo partly drawn) [Compound 155]	6.84
COc1cc(Cn2ncc3c(-c4cccc(-c5ccc(CNC[C@@H]6CCC(=O)N6)cc5)c4Cl)cccc32)c(Cl)cc1CNCC(=O)O [Compound 32]	6.61
COc1cc(-c2cccc(-c3cccc4c3cnn4Cc3cc(OC)c(CN4CC[C@@H](C(=O)O)C4)cc3Cl)c2C)ccc1CNC[C@@H]1CCC(=O)N1 [Compound 90]	6.82
COc1nc(Cn2ncc3c(-c4cccc(-c5ccc(CNC[C@@H]6CCC(=O)N6)cc5)c4Cl)cccc32)c(Cl)cc1CN[C@@H](CO)C(=O)O [Compound 80]	6.52
COc1cc(-c2cccc(-c3cccc4c3cnn4Cc3nc(OC)c(CN(C)[C@H]4CC[C@H](C(=O)O)CC4)cc3Cl)c2Cl)ccc1CNC[C@@H]1CCC(=O)N1 [Compound 151]	7.20
COc1cc(Cn2ncc3c(-c4cccc(-c5ccc(CNC[C@@H]6CCC(=O)N6)cc5)c4Cl)cccc32)c(Cl)cc1CNCC1CCC(C(=O)O)CC1 (stereo partly drawn) [Compound 39]	6.53
N#Cc1cncc(COc2cc(Cn3ncc4c(-c5cccc(-c6ccc(CNC[C@@H]7CCC(=O)N7)cc6)c5Cl)cccc43)c(Cl)cc2CNCCO)c1 [Compound 24]	7.27
COc1cc(-c2cccc(-c3cccc4c3cnn4Cc3cc(OC)c(CN(C)CC4CCC(CC(=O)O)CC4)cc3Cl)c2Cl)ccc1CNC[C@@H]1CCC(=O)N1 (stereo partly drawn) [Compound 118]	7.28
COc1cc(Cn2ncc3c(-c4cccc(-c5ccc(CNC[C@@H]6CCC(=O)N6)c(C)c5)c4Cl)cccc32)c(Cl)cc1CN1CC[C@@H](C(=O)O)C1 [Compound 48]	6.18
COc1cc(-c2cccc(-c3cccc4c3cnn4Cc3cc(OC)c(CN(Cc4ccccc4)[C@H]4CC[C@H](C(=O)O)CC4)cc3Cl)c2Cl)ccc1CNC[C@@H]1CCC(=O)N1 [Compound 125]	6.17
COc1cc(Cn2ncc3c(-c4cccc(-c5cc(F)c(CNC[C@@H]6CCC(=O)N6)c(OC)c5)c4Cl)cccc32)c(Cl)cc1CN(C)CC1CCC(C(=O)O)CC1 (stereo partly drawn) [Compound 101]	7.06
COc1cc(-c2cccc(-c3cccc4c3cnn4Cc3cc(OCC(=O)O)c(CN(C)C[C@H]4CC[C@H](C(=O)O)CC4)cc3Cl)c2Cl)ccc1CNC[C@@H]1CCC(=O)N1 [Compound 128]	6.41
COc1cc(Cn2ncc3c(-c4cccc(-c5ccc(CNC[C@@H]6CCC(=O)N6)cc5)c4Cl)cccc32)c(Cl)cc1CN[C@@H](CO)C(=O)O [Compound 30]	7.09
N#Cc1cncc(COc2cc(Cn3ncc4c(-c5cccc(-c6ccc(CNC[C@@H]7CCC(=O)N7)cc6)c5C#N)cccc43)c(Cl)cc2CN[C@@H](CO)C(=O)O)c1 [Compound 13]	6.94
COc1cc(Cn2ncc3c(-c4cccc(-c5ccc(CNC[C@@H]6CCC(=O)N6)cc5)c4Cl)cccc32)c(Cl)cc1CNC[C@H](O)CC(=O)O [Compound 31]	7.09
COc1cc(-c2cccc(-c3cccc4c3cnn4Cc3cc(OC)c(CN(C)C4CCC(C(=O)O)CC4)cc3Cl)c2Cl)ccc1CNC[C@@H]1CCCC(=O)N1 (stereo partly drawn) [Compound 153]	7.03
COc1cc(-c2cccc(-c3cccc4c3cnn4Cc3cc(OC(C)C)c(CN(C)CC4CCC(C(=O)O)CC4)cc3Cl)c2Cl)ccc1CNC[C@@H]1CCC(=O)N1 (stereo partly drawn) [Compound 110]	6.31
COc1cc(-c2cccc(-c3cccc4c3cnn4Cc3cc(OC)c(CN(C)CC4CCC(C(=O)O)CC4)cc3C)c2Cl)ccc1CNC[C@@H]1CCC(=O)N1 (stereo partly drawn) [Compound 112]	6.73
COc1cc(Cn2ncc3c(-c4cccc(-c5ccc(CNC[C@@H]6CCC(=O)N6)cc5)c4Cl)cccc32)c(Cl)cc1CNC1CCC(C(=O)O)CC1 (stereo partly drawn) [Compound 40]	6.67
COc1cc(-c2cccc(-c3cccc4c3cnn4Cc3cc(OC[C@@H]4CCC(=O)N4)c(CN(C)C[C@H]4CC[C@H](C(=O)O)CC4)cc3Cl)c2Cl)ccc1CNC[C@@H]1CCC(=O)N1 [Compound 134]	7.17
N#Cc1cncc(COc2cc(Cn3ncc4c(-c5cccc(-c6ccc(CNCCO)cc6)c5Cl)cccc43)c(Cl)cc2CN[C@@H](CO)C(=O)O)c1 [Compound 5]	7.24
Cc1c(-c2ccc(CNC[C@@H]3CCC(=O)N3)cc2)cccc1-c1cccc2c1cnn2Cc1cc(OCc2cncc(C#N)c2)c(CN[C@@H](CO)C(=O)O)cc1Cl [Compound 2]	7.07

Compounds with a higher pEC50, results first:

pEC50	Compound
7.30	COc1cc(-c2cccc(-c3cccc4c3cnn4Cc3cc(OC)c(CN[C@H]4CC[C@H](C(=O)O)CC4)cc3Cl)c2Cl)ccc1CNC[C@@H]1CCC(=O)N1 [Compound 56]
7.37	COc1cc(-c2cccc(-c3cccc4c3cnn4Cc3cc(OC)c(CN(C)C4CC5(CC(C(=O)O)C5)C4)cc3Cl)c2Cl)ccc1CNC[C@@H]1CCC(=O)N1 (stereo partly drawn) [Compound 106]
7.40	COc1cc(Cn2ncc3c(-c4cccc(-c5cc(F)c(CNC[C@@H]6CCC(=O)N6)c(OC)c5)c4Cl)cccc32)c(Cl)cc1CN(CCO)[C@H]1CC[C@H](C(=O)O)CC1 [Compound 171]
7.40	COc1cc(Cn2ncc3c(-c4cccc(-c5cc(F)c(CNC[C@@H]6CCC(=O)N6)c(OC)c5)c4Cl)cccc32)c([N+](=O)[O-])cc1CN(C)[C@H]1CC[C@H](CC(=O)O)CC1 [Compound 144]
7.43	CCN(Cc1cc(Cl)c(Cn2ncc3c(-c4cccc(-c5cc(F)c(CNC[C@@H]6CCC(=O)N6)c(OC)c5)c4Cl)cccc32)cc1OC)C12CCC(C(=O)O)(CC1)CC2 [Compound 159]
7.48	COc1cc(-c2cccc(-c3cccc4c3cnn4Cc3cc(OC)c(CN(C)[C@H]4CC[C@@H](C(=O)O)CC4)cc3Cl)c2Cl)ccc1CNC[C@@H]1CCC(=O)N1 [Compound 60]
7.49	COc1cc(Cn2ncc3c(-c4cccc(-c5cc(F)c(CNC[C@@H]6CCC(=O)N6)c(OC)c5)c4Cl)cccc32)c(C(F)(F)F)cc1CN(C)[C@H]1CC[C@H](CC(=O)O)CC1 [Compound 147]
7.52	COc1cc(Cn2ncc3c(-c4cccc(-c5cc(F)c(CNC[C@@H]6CCC(=O)N6)c(OC)c5)c4Cl)cccc32)c(C(F)(F)F)cc1CN(C)C12CCC(C(=O)O)(CC1)CC2 [Compound 150]
7.59	COc1cc(-c2cccc(-c3cccc4c3cnn4Cc3nc(OC)c(CN(C)[C@H]4CC[C@H](C(=O)O)CC4)cc3Cl)c2Cl)cc(F)c1CNC[C@@H]1CCC(=O)N1 [Compound 163]
7.60	COc1cc(-c2cccc(-c3cccc4c3cnn4Cc3nc(OC)c(CN(C)C45CCC(C(=O)O)(CC4)CC5)cc3Cl)c2Cl)cc(F)c1CNC[C@@H]1CCC(=O)N1 [Compound 135]
7.68	COc1cc(-c2cccc(-c3cccc4c3cnn4Cc3cc(OC)c(CN(C)[C@H]4C[C@H](C(=O)O)C4)cc3Cl)c2Cl)ccc1CNC[C@@H]1CCC(=O)N1 [Compound 93]
7.70	COc1cc(-c2cccc(-c3cccc4c3cnn4Cc3cc(OC)c(CN(C)C45CCC(C(=O)O)(CC4)CC5)cc3Cl)c2Cl)ccc1CNC[C@@H]1CCC(=O)N1 [Compound 105]
7.80	COc1cc(Cn2ncc3c(-c4cccc(-c5cc(F)c(CNC[C@@H]6CCC(=O)N6)c(OC)c5)c4Cl)cccc32)c(Cl)cc1CN(C)C1CCC(CC(=O)O)CC1 (stereo partly drawn) [Compound 115]
7.80	COc1cc(Cn2ncc3c(-c4cccc(-c5cc(F)c(CNC[C@@H]6CCC(=O)N6)c(OC)c5)c4Cl)cccc32)c(Cl)cc1CN(C)C12CCC(C(=O)O)(CC1)CC2 [Compound 116]
7.82	COc1cc(Cn2ncc3c(-c4cccc(-c5cc(F)c(CNC[C@@H]6CCC(=O)N6)c(OC)c5)c4Cl)cccc32)c(Cl)cc1CN(C)[C@H]1C[C@H](C(=O)O)C1 [Compound 113]
